Values quoted from earlier work as cited in patent publication US4927638A, “Etoposide solutions” (Bristol-Myers Company, priority 1988, dated 1990).

Tests used:
[1] = with water, ethanol, propylene glycol, isopropyl myristate, diethyl ether, acetone, corn oil, cottonseed oil, etc.
[2] = background statement
[3] = oral (capsules or solution), of that found after intravenous administration; patients

miscibility [1] | Compound | solubility in water [2] | oral bioavailability [3]
miscible | CO[C@H]1CO[C@H]2[C@@H]1OC[C@H]2OC [Dimethylisosorbide, dimethylisosorbide] | – | –
– | COc1cc([C@@H]2c3cc4c(cc3[C@@H](O[C@@H]3O[C@@H]5CO[C@@H](C)O[C@H]5[C@H](O)[C@H]3O)[C@H]3COC(=O)[C@H]23)OCO4)cc(OC)c1O [Etoposide, 4'-demethylepipodophyllotoxin-9-(4,6-O(R)-ethylidine-β-D-glucopyranoside)] | only sparingly soluble | about 50%
